Measured values: patent publication US11850287B2, “Heterocyclic acyl hydrazone linkers, methods and uses thereof” (Ontario Institute for Cancer Research (OICR), priority 2017, dated 2023)

Columns and labels:
[1] = Half-life of model acyl hydrazones in a simulated lysosomal environment (pH 4.5); assay type: physicochemical; details: simulated lysosomal environment (acidic buffer)
Text: Ranging from the intracellularly readily cleavable linkers such as the acyl hydrazones to the relatively stable non-cleavable linkers, having the ability to tune the rate of release of the payload and to improve plasma stability provides opportunities not only to target a greater variety of diseased cells, but also to design agents tailored to achieve a better therapeutic window. Towards the goal of developing enhanced control of ADC linker stability, several model heterocyclic acyl hydrazones whose lability is modulated either by steric or stereoelectronic effects have been prepared.
Towards the goal developing enhanced control of ADC linker stability, several model cyclic acyl hydrazones whose lability is modulated by different substitutions have been prepared. Exemplary acyl hydrazones containing a substituted phenyl group adjacent to the imine carbon have been synthesized. […] Analogues of the heterocyclic linker compounds in Table 1 have been incorporated into linkers, using a similar strategy as employed in the linker synthesis in Mylotarg, as described in greater detail herein below

SKOV3 ovarian cells = assay: Cytotoxicity against SKOV3 ovarian cancer cells (ATP content, CellTiter-Glo); assay type: cell-based; details: DAR ratio 3.39 (Synagis-SMCC-DM1), 3.50 (Trastuzumab-SMCC-DM1), 6.59 (IIIa), 6.99 (IIIc)
Protocol: SKOV3 ovarian cells are incubated with the effectors for a period corresponding to 2 to 3 times their estimated doubling time and the amount of viable cells is determine by measuring ATP content in the wells. […] All ADCs are diluted in DPBS to 6× the highest concentration tested, followed by 10 3-fold serial dilutions in DPBS for a total of 11 concentration points. Each point is added to triplicate wells. DPBS is added in wells to measure the maximum growth. Cells are diluted at their appropriate seeding density (ranging from 150 to 1000 cells per well) in complete media supplemented with glutamine 2 mM, serum and antibiotic cocktail. They are distributed in white, opaque bottom, tissue-culture treated 384 well plates and incubated for 24 hrs at 37° C.+5% CO2. […] Total ATP is measured using CellTiter-Glo reagent from Promega as recommended by the supplier. […] Signal output is measured on a luminescence plate reader (envision, Perkin Elmer) set at an integration time of 0.1 sec. […]
Each concentration point (S) is normalized to the negative control wells (NC) and expressed as % survival (NC-S/NC×100). Potency (IC50) and efficacy are calculated from a non-linear curve fit of the points versus log of the concentrations without constrain on the slope. Refined data are analysed using Prism software.

half-life [1] [h]	Molecule	IC50 (SKOV3 ovarian cells) [nM]
2.32	CC(=O)N/N=C1\CCOc2ccc(F)cc21 [E]	
	Synagis-SMCC-DM1: negative control ADC	9.64
